According to patent US20110178064A1, “SPIRO CONDENSED […] DERIVATIVES FOR USE AS ANTIBACTERIAL” (A[…]&D, priority 2007, published 2011):

target: Escherichia coli DNA gyrase A/B tetramer (Escherichia coli, UniProt P0AES4+P0AES6); assay: DNA gyrase supercoiling activity fluorescence polarisation assay; type: biochemical
Experimental: The supercoiling reactions may be quenched by the addition of 10 microliters/well of 40 nM oligodeoxynucleotide probe in 3× triplex-forming buffer consisting of 150 mM NaCl, and 150 mM sodium acetate at pH 3.5. The oligodeoxynucleotide probe may be 5′-BODIPY-FL-labeled […]. After 60 minutes, the fluorescence anisotropy of the BODIPY-FL may be measured in a Tecan Ultra plate reader, using 485 nm excitation and 535 nm emission filters equipped with polarizers. The IC50 may be determined by nonliner regression using two control reactions. The first contains no test compound but 0.8% DMSO (100% activity) while the second control reaction contains 5 uM Ciprofloxacin and 0.8% DMSO (0% activity).

Sequence of Escherichia coli DNA gyrase A/B tetramer (P0AES4 whole entry, one chain of several): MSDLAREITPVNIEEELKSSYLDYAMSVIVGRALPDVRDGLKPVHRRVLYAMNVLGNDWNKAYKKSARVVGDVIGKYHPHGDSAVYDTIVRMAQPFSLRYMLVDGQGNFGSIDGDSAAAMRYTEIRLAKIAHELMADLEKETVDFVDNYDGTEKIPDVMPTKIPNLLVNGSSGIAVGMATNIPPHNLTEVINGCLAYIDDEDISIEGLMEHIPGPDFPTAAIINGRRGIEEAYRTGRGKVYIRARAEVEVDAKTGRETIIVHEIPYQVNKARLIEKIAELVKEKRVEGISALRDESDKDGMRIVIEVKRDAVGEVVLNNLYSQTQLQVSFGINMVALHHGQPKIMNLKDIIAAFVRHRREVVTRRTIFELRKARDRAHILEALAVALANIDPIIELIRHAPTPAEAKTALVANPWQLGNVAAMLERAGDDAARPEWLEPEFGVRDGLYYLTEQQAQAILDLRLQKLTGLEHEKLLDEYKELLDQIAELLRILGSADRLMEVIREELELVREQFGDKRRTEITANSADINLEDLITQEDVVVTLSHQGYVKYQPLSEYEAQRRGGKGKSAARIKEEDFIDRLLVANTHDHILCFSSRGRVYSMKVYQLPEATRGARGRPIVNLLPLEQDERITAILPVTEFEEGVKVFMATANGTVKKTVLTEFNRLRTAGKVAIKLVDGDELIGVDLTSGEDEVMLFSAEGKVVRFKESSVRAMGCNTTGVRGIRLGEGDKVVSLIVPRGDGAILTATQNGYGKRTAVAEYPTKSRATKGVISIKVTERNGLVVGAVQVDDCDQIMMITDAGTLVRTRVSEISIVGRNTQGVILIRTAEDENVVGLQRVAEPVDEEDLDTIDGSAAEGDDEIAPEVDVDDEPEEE

`C[C@@H]1CN2c3nc(F)c(C#Cc4cnccn4)cc3CC3(C(=O)NC(=O)NC3=O)[C@H]2[C@H](C)O1` (racemic) [Example 22, (6aS,7S,9R)-rel-2-Fluoro-7,9-dimethyl-3-(pyrazin-2-ylethynyl)-6a,7,9,10-tetrahydro-1′H,5H-spiro[[4]oxazino[4,3-a][1,8]naphthyridine-6,5′-pyrimidine]-2′,4′,6′(3′H)-trione] was tested. Which IC50 did it give?
The IC50 was 4 µM.

Which IC50 does the source give for `C[C@@H]1CN2c3ncc(-c4nccn4C)cc3CC3(C(=O)NC(=O)NC3=O)[C@H]2[C@H](C)O1` (racemic) [Example 32, (6aS,7S,9R)-rel-7,9-Dimethyl-3-(1-methyl-1H-imidazol-2-yl)-6a., 7,9,10-tetrahydro-2′H,5H-spiro[1,4-oxazino[4,3-a][1,8]naphthyridine-6,5′-pyrimidine]-2′,4′,6′(1′H,3′H)-trione] here?
Its IC50 is 24 µM.

For `Cc1cscc1-c1cnc2c(c1)CC1(C(=O)NC(=O)NC1=O)[C@H]1[C@H](C)O[C@H](C)CN21` (racemic) [Example 34, (6aS,7S,9R)-rel-7,9-Dimethyl-3-(4-methylthiophen-3-yl)-6a,7,9,10-tetrahydro-2′H,5H-spiro[1,4-oxazino[4,3-a][1,8]naphthyridine-6,5′-pyrimidine]-2′,4′,6′(1′H,3′H-trione], which IC50 is on record?
Its IC50 is 15 µM.

Which IC50 does the source give for `C[C@@H]1CN2c3cnc(-c4cc5ccccc5o4)cc3CC3(C(=O)NC(=O)NC3=O)[C@H]2[C@H](C)O1` (racemic) [Example 53, (6aS,7S,9R)-rel-3-(1-Benzofuran-2-yl)-7,9-dimethyl-6a,7,9,10-tetrahydro-2′H,5H-spiro[1,4-oxazino[4,3-a][1,7]napthyridine-6,5′-pyrimidine]2′,4′,6′(1′H,3′H)-trione] here?
Its IC50 is 16 µM.

`C[C@@H]1CN2c3cnc(-c4ccco4)cc3CC3(C(=O)NC(=O)NC3=O)[C@H]2[C@H](C)O1` (racemic) [Example 54, (6aS,7S,9R)-rel-3-(Furan-2-yl)-7,9-dimethyl-6a,7,9,10-tetrahydro-2′H,5H-spiro[1,4-oxazino[4,3-a][1,7]naphthyridine-6,5′-pyrimidine]-2′,4′,6′(1′H3″H)-trione] was tested. Which IC50 did it give?
Its IC50 is greater than 83 µM.

With `COc1ccncc1-c1cc2c(cn1)N1C[C@@H](C)O[C@@H](C)[C@@H]1C1(C2)C(=O)NC(=O)NC1=O` (racemic) [Example 58, (6aS,7S,9R)-rel-3-(4-Methoxypyridin-3-yl)-7,9-dimethyl-6a,7,9,10-tetrahydro-2′H,5H-spiro[1,4-oxazino[4,3-a][1,7]naphthyridine-6,5′-pyrimidine]-2′,4′,6′(1″H3″H)-trione] as the molecule, how does the IC50 read?
The IC50 was greater than 83 µM.

How did the IC50 turn out when `C[C@@H]1CN2c3cnc(-c4cccnc4)cc3CC3(C(=O)NC(=O)NC3=O)[C@H]2[C@H](C)O1` (racemic) [Example 61, (6aS,7S,9R)-rel-7,9-Dimethyl-3-pyridin-3-yl)-6a,7,9,10-tetrahydro-2′H,5H-spiro[1,4-oxazino[4,3-a][1,7]naphthyridine-6,5′-pyrimidine]-2′,4′,6′(1′H,3′H)-trione] was run?
The IC50 was 18 µM.

How did the IC50 turn out when `C[C@@H]1CN2c3ccc(-c4ccccn4)nc3CC3(C(=O)NC(=O)NC3=O)[C@H]2[C@H](C)O1` (racemic) [Example 69, (2R,4S,4aS)-rel-2,4-Dimethyl-8-(pyridin-2-yl)-1,2,4,4a-tetrahydro-2′H,6H-spiro[1,4-oxazino[4,3-a][1,5]naphthyridine-5,5′-pyrimidine]-2′,4′,6′(1′H3″H)-trione] was run?
The IC50 was 29 µM.

Which IC50 does the source give for `C[C@@H]1CN2c3cnc(-c4nccs4)cc3CC3(C(=O)NC(=O)NC3=O)[C@H]2[C@H](C)O1` (racemic) [Example 86, (6aS,7S,9R)-rel-7,9-Dimethyl-3-(1,3-thiazol-2-yl)-6a., 7,9,10-tetrahydro-2′H,5H-spiro[1,4-oxazino[4,3-a][1,7]naphthyridine-6,5′-pyrimidine]-2′,4′,6′(1′H,3′H)-trione] here?
The IC50 was 61 µM.

`COc1nc2c(cc1-c1nnc(C)s1)CC1(C(=O)NC(=O)NC1=O)[C@H]1[C@H](C)O[C@H](C)CN21` (racemic) [Example 119, (6aS,7S,9R)-rel-2-Methoxy-7,9-dimethyl-3-(5-methyl-1,3,4-thiadiazol-2-yl)-6a,7,9,10-tetrahydro-1′H,5H-spiro[[1,4]oxazino[4,3-a][1,8]naphthyridine-6,5′-pyrimidine]-2′., 4′,6′(3′H)-trione] was tested. Which IC50 did it give?
Its IC50 is 21 µM.

With `C[C@@H]1CN2c3ncc(-c4nncs4)cc3CC3(C(=O)NC(=O)NC3=O)[C@H]2[C@H](C)O1` (relative stereo) [Example 1, (6aS,7S,9R)-rel-7,9-Dimethyl-3-(1,3,4-thiadiazol-2-yl)-6a,7,9,10-tetrahydro-2′H,5H-spiro[1,4-oxazino[4,3-a][1,8]naphthyridine-6,5′-pyrimidine]-2′,4′,6′(1′H,3′H)-trione] as the molecule, how does the IC50 read?
Its IC50 is 7 µM.

With `C[C@@H]1CN2c3cnc(Br)cc3CC3(C(=O)NC(=O)NC3=O)[C@H]2[C@H](C)O1` (relative stereo) [Example 3, (6aS,7S,9R)-rel-3-Bromo-7,9-dimethyl-6a,7,9,10-tetrahydro-1′H,5H-spiro[[1,4]oxazino[4,3-a][1,7]naphthyridine-6,5′-pyrimidine]-2′,4′,6′(3′H)-trione] as the molecule, how does the IC50 read?
Its IC50 is 11 µM.

`C[C@@H]1CN2c3cncc(F)c3CC3(C(=O)NC(=O)NC3=O)[C@H]2[C@H](C)O1` (relative stereo) [Example 6, (6aS,7S,9R)-rel-4-Fluoro-7,9-dimethyl-6a,7,9,10-tetrahydro-1′H,5H-spiro[[1,4]oxazino[4,3-a][1,7]naphthyridine-6,5′-pyrimidine]-2′,4′,6′(3′H)-trione] was tested. Which IC50 did it give?
Its IC50 is greater than 83 µM.

`C[C@@H]1CN2c3ncc(Br)cc3CC3(C(=O)NC(=O)NC3=O)[C@H]2[C@H](C)O1` (relative stereo) [Example 9, (6aS,7S,9R)-rel-3-Bromo-7,9-dimethyl-6a,7,9,10-tetrahydro-1′H,5H-spiro[[1,4]oxazino[4,3-a][1,8]naphthyridine-6,5′-pyrimidine]-2′,4′,6′(3′H)-trione] was tested. Which IC50 did it give?
The IC50 was 3 µM.

With `C[C@@H]1CN2c3c(ccnc3Cl)CC3(C(=O)NC(=O)NC3=O)[C@H]2[C@H](C)O1` (relative stereo) [Example 12, (6aS,7S,9R)-rel-1-chloro-7,9-dimethyl-6a,7,9,10-tetrahydro-1′H,5H-spiro[[1,4]oxazino[4,3-a][1,7]naphthyridine-6,5′-pyrimidine]-2′,4′,6′(3′H)-trione] as the molecule, how does the IC50 read?
The IC50 was 21 µM.

For `C[C@@H]1CN2c3nc(F)c(I)cc3CC3(C(=O)NC(=O)NC3=O)[C@H]2C(=O)N1` (relative stereo) [Example 14, (6aS,9R)-rel-2-Fluoro-3-iodo-9-methyl-9,10-dihydro-1′H-spiro[pyrazino[1,2-a][1,8]naphthyridine-6,5′-pyrimidine]-2′,4′,6′,7(3′H,5H,6aH,8H)-tetraone], which IC50 is on record?
The IC50 was 11 µM.

How did the IC50 turn out when `Cc1nnc(-c2cc3c(nc2F)N2C[C@@H](C)O[C@@H](C)[C@@H]2C2(C3)C(=O)NC(=O)NC2=O)s1` (relative stereo) [Example 16, (6aS,7S,9R)-rel-2-Fluoro-7,9-dimethyl-3-(5-methyl-1,3,4-thiadiazol-2-yl)-6a,7,9,10-tetrahydro-1′H,5H-spiro[[1,4]oxazino[4,3-a][1,8]naphthyridine-6,5′-pyrimidine]-2′,4′,6′(3′H)-trione] was run?
The IC50 was 7 µM.

`C[C@@H]1CN2c3nc(F)ccc3CC3(C(=O)NC(=O)NC3=O)[C@H]2[C@H](C)O1` (relative stereo) [Example 20, (6aS,7S,9R)-rel-2-Fluoro-7,9-dimethyl-6a,7,9,10-tetrahydro-1′H,5H-spiro[[1,4]oxazino[4,3-a][1,8]naphthyridine-6,5′-pyrimidine]-2′,4′,6′(3′H)-trione] was tested. Which IC50 did it give?
Its IC50 is 25 µM.

With `C[C@@H]1CN2c3nc(F)c(C#Cc4ccccn4)cc3CC3(C(=O)NC(=O)NC3=O)[C@H]2[C@H](C)O1` (relative stereo) [Example 21, (6aS,7S,9R)-rel-2-fluoro-7,9-dimethyl-3-(pyridin-2-ylethynyl)-6a,7,9,10-tetrahydro-1′H,5H-spiro[[1,4]oxazino[4,3-a][1,8]naphthyridine-6,5′-pyrimidine]-2′,4′,6′(3′H)-trione] as the molecule, how does the IC50 read?
The IC50 was 10 µM.

How did the IC50 turn out when `COc1ccc(C#Cc2cc3c(nc2F)N2C[C@@H](C)O[C@@H](C)[C@@H]2C2(C3)C(=O)NC(=O)NC2=O)cc1` (relative stereo) [Example 23, (6aS,7S,9R)-rel-2-Fluoro-3-((4-methoxyphenyl)ethynyl)-7,9-dimethyl-6a,7,9,10-tetrahydro-1′H,5H-spiro[[1,4]oxazino[4,3-a][1,8]naphthyridine-6,5′-pyrimidine]-2′,4′,6′(3′H)-trione] was run?
Its IC50 is 6 µM.

How did the IC50 turn out when `Cc1nnc(-c2cnc3c(c2)CC2(C(=O)NC(=O)NC2=O)[C@H]2[C@H](C)O[C@H](C)CN32)s1` (relative stereo) [Example 24, (6aS,7S,9R)-rel-7,9-Dimethyl-3-(5-methyl-1,3,4-thiadiazol-2-yl)-6a,7,9,10-tetrahydro-2′H,5H-spiro[1,4-oxazino[4,3-a][1,8]naphthyridine-6,5′-pyrimidine]-2′,4′,6′(1′H,3′H)-trione] was run?
Its IC50 is greater than 5 µM.

With `C[C@@H]1CN2c3ncc(-c4cncs4)cc3CC3(C(=O)NC(=O)NC3=O)[C@H]2[C@H](C)O1` (relative stereo) [Example 26, (6aS,7S,9R)-rel-7,9-Dimethyl-3-(1,3-thiazol-5-yl)-6a,7,9,10-tetrahydro-2′H,5H-spiro[1,4-oxazino[4,3-a][1,8]naphthyridine-6,5′-pyrimidine]-2′,4′,6′(1′H,3′H)-trione] as the molecule, how does the IC50 read?
Its IC50 is 4 µM.

With `C[C@@H]1CN2c3ncc(-c4cc5ccccc5s4)cc3CC3(C(=O)NC(=O)NC3=O)[C@H]2[C@H](C)O1` (relative stereo) [Example 28, (6aS,7S,9R)-rel-3-(1-Benzothiophen-2-yl)-7,9-dimethyl-6a,7,9,10-tetrahydro-2′H,5H-spiro[1,4-oxazino[4,3-a][1,8]naphthyridine-6,5′-pyrimidine]-2′,4′,6′(1′H,3′H)-trione] as the molecule, how does the IC50 read?
The IC50 was 2 µM.
